# Read-outs that look alike come from different tables or passages of the source.
# Test system: Wheat and Barley and weed species
# Experiment: Post-Emergent Test III: postemergent herbicidal activity in wheat and barley, visual rating after 21 d and probit GR20/GR50/GR80/GR90 (Tables 9-13)
# Format: in vivo
# Conditions: for pest or weed control at 35 g/ha / pest or weed control at 70 g/ha / pest or weed control at 140 g/ha: post-emergence, 504 h
# Excerpt: Herbicidal evaluations were made visually on a scale of 0 to 100 where 0 represents no activity and 100 represents complete plant death.
# Seeds of the desired test plant species were planted in Sun Gro MetroMix® 306 planting mixture, which typically has a pH of 6.0 to 6.8 and an organic matter content of about 30 percent, in plastic pots with a surface area of 103.2 square centimeters (cm^2). When required to ensure good germination and healthy plants, a fungicide treatment and/or other chemical or physical treatment was applied. The plants were grown for 7-36 days (d) in a greenhouse with an approximate 14 hour (h) photoperiod which was maintained at about 18° C. during the day and 17° C. during the night. Nutrients and water were added on a regular basis and supplemental lighting was provided with overhead metal halide 1000-Watt lamps as necessary. The plants were employed for testing when they reached the second or third true leaf stage.
# A weighed amount, determined by the highest rate to be tested, of each test compound was placed in a 25 mL glass vial and was dissolved in 4 mL of a 97:3 v/v mixture of acetone and DMSO to obtain concentrated stock solutions. […] The concentrated stock solutions obtained were diluted with 20 mL of an aqueous mixture containing acetone, water, isopropyl alcohol, DMSO, Agri-Dex crop oil concentrate, and X-77 surfactant in a 48:39:10:1.5:1.5:0.02 v/v ratio to obtain spray solutions containing the highest application rates. Additional application rates were obtained by serial dilution of 12 mL of the high rate solution into a solution containing 2 mL of a 97:3 v/v mixture of acetone and DMSO and 10 mL of an aqueous mixture containing acetone, water, isopropyl alcohol, DMSO, Agri-Dex crop oil concentrate, and X-77 surfactant in a 48:39:10:1.5:1.5:0.02 v/v ratio to obtain ½×, ¼×, ⅛× and 1/16× rates of the high rate. Compound requirements are based upon a 12 mL application volume at a rate of 187 liters per hectare (L/ha). Formulated compounds were applied to the plant material with an overhead Mandel track sprayer equipped with 8002E nozzles calibrated to deliver 187 L/ha over an application area of 0.503 square meters at a spray height of 18 inches (43 cm) above the average plant canopy height. Control plants were sprayed in the same manner with the solvent blank.
# The treated plants and control plants were placed in a greenhouse as described above and watered by subirrigation to prevent wash-off of the test compounds. After 21 d, the condition of the test plants as compared with that of the untreated plants was determined visually and scored on a scale of 0 to 100 percent where 0 corresponds to no injury and 100 corresponds to complete kill and are presented as indicated in Table 4.
# By applying the well-accepted probit analysis as described by J. Berkson in Journal of the American Statistical Society, 48, 565 (1953) and by D. Finney in “Probit Analysis” Cambridge University Press (1952), herbicidal injury of a specific compound at various rates can be used to calculate GR20, GR50, GR80 and GR90 values, which are defined as growth reduction factors that correspond to the effective dose of herbicide required to provide plant growth reduction (GR) of 20 percent, 50 percent, 80 percent and 90 percent, respectively. Probit analysis was applied to data collected from multiple dose rates of individual compounds utilizing the procedures explained in the following examples. The data for some of the dose rates and analysis of all of the dose rates are captured in the following tables.
compound,measurement,setting,value
COC(=O)c1nc(-c2c(F)cc3c(c2F)OC(F)(F)O3)cc(N)c1Cl [Compound 46],GR50 ALOMY,"ALOMY black-grass (Alopecurus myosuroides), growth reduction of 50%, probit analysis",18 g ai/ha
same,GR80 ALOMY,"ALOMY black-grass (Alopecurus myosuroides), growth reduction of 80%, probit analysis",35 g ai/ha
same,GR90 ALOMY,"ALOMY black-grass (Alopecurus myosuroides), growth reduction of 90%, probit analysis",49 g ai/ha
same,GR50 APESV,"APESV bentgrass (Apera spica-venti), growth reduction of 50%, probit analysis",88 g ai/ha
same,GR80 APESV,"APESV bentgrass (Apera spica-venti), growth reduction of 80%, probit analysis",>140 g ai/ha
same,GR90 APESV,"APESV bentgrass (Apera spica-venti), growth reduction of 90%, probit analysis",>140 g ai/ha
same,GR20 HORVS,"HORVS barley, spring (crop), growth reduction of 20%, probit analysis",8 g ai/ha
same,pest or weed control at 35 g/ha,"Hordeum vulgare, HORVS barley, spring (crop), 35 g ai/ha, read-out: Visual Growth Reduction (%) 21 Days After Application HORVS",45 to 59%
same,pest or weed control at 70 g/ha,"Hordeum vulgare, HORVS barley, spring (crop), 70 g ai/ha, read-out: Visual Growth Reduction (%) 21 Days After Application HORVS",60 to 74%
same,pest or weed control at 140 g/ha,"Hordeum vulgare, HORVS barley, spring (crop), 140 g ai/ha, read-out: Visual Growth Reduction (%) 21 Days After Application HORVS",85 to 94%
same,Visual Growth Reduction (%) 21 Days After Application KCHSC,"KCHSC kochia (Kochia scoparia), 35 g ai/ha",B (85-94)
same,Visual Growth Reduction (%) 21 Days After Application KCHSC,"KCHSC kochia (Kochia scoparia), 70 g ai/ha",A (95-100)
same,Visual Growth Reduction (%) 21 Days After Application KCHSC,"KCHSC kochia (Kochia scoparia), 140 g ai/ha",A (95-100)
same,GR50 KCHSC,"KCHSC kochia (Kochia scoparia), growth reduction of 50%, probit analysis",1 g ai/ha
same,GR80 KCHSC,"KCHSC kochia (Kochia scoparia), growth reduction of 80%, probit analysis",7 g ai/ha
same,GR90 KCHSC,"KCHSC kochia (Kochia scoparia), growth reduction of 90%, probit analysis",17 g ai/ha
same,GR50 LOLSS,"LOLSS ryegrass, growth reduction of 50%, probit analysis",91 g ai/ha
same,GR80 LOLSS,"LOLSS ryegrass, growth reduction of 80%, probit analysis",>140 g ai/ha
same,GR90 LOLSS,"LOLSS ryegrass, growth reduction of 90%, probit analysis",>140 g ai/ha
same,GR50 SETVI,"SETVI green foxtail (Setaria viridis), growth reduction of 50%, probit analysis",106 g ai/ha
same,GR80 SETVI,"SETVI green foxtail (Setaria viridis), growth reduction of 80%, probit analysis",>140 g ai/ha
same,GR90 SETVI,"SETVI green foxtail (Setaria viridis), growth reduction of 90%, probit analysis",>140 g ai/ha
same,GR20 TRZAS,"TRZAS wheat, spring (crop), growth reduction of 20%, probit analysis",10 g ai/ha
same,pest or weed control at 35 g/ha,"Triticum aestivum, TRZAS wheat, spring (crop), 35 g ai/ha, read-out: Visual Growth Reduction (%) 21 Days After Application TRZAS",60 to 74%
same,pest or weed control at 70 g/ha,"Triticum aestivum, TRZAS wheat, spring (crop), 70 g ai/ha, read-out: Visual Growth Reduction (%) 21 Days After Application TRZAS",75 to 84%
same,pest or weed control at 140 g/ha,"Triticum aestivum, TRZAS wheat, spring (crop), 140 g ai/ha, read-out: Visual Growth Reduction (%) 21 Days After Application TRZAS",85 to 94%
same,pest or weed control at 35 g/ha,"ALOMY black-grass (Alopecurus myosuroides), 35 g ai/ha, read-out: Visual Growth Reduction (%) 21 Days After Application ALOMY",60 to 74%
same,pest or weed control at 70 g/ha,"ALOMY black-grass (Alopecurus myosuroides), 70 g ai/ha, read-out: Visual Growth Reduction (%) 21 Days After Application ALOMY",95 to 100%
same,pest or weed control at 140 g/ha,"ALOMY black-grass (Alopecurus myosuroides), 140 g ai/ha, read-out: Visual Growth Reduction (%) 21 Days After Application ALOMY",95 to 100%
same,pest or weed control at 35 g/ha,"APESV bentgrass (Apera spica-venti), 35 g ai/ha, read-out: Visual Growth Reduction (%) 21 Days After Application APESV",0 to 29%
same,pest or weed control at 70 g/ha,"APESV bentgrass (Apera spica-venti), 70 g ai/ha, read-out: Visual Growth Reduction (%) 21 Days After Application APESV",45 to 59%
same,pest or weed control at 140 g/ha,"APESV bentgrass (Apera spica-venti), 140 g ai/ha, read-out: Visual Growth Reduction (%) 21 Days After Application APESV",60 to 74%
same,pest or weed control at 35 g/ha,"LOLSS ryegrass, 35 g ai/ha, read-out: Visual Growth Reduction (%) 21 Days After Application LOLSS",0 to 29%
same,pest or weed control at 70 g/ha,"LOLSS ryegrass, 70 g ai/ha, read-out: Visual Growth Reduction (%) 21 Days After Application LOLSS",45 to 59%
same,pest or weed control at 140 g/ha,"LOLSS ryegrass, 140 g ai/ha, read-out: Visual Growth Reduction (%) 21 Days After Application LOLSS",60 to 74%
same,pest or weed control at 35 g/ha,"SETVI green foxtail (Setaria viridis), 35 g ai/ha, read-out: Visual Growth Reduction (%) 21 Days After Application SETVI",0 to 29%
same,pest or weed control at 70 g/ha,"SETVI green foxtail (Setaria viridis), 70 g ai/ha, read-out: Visual Growth Reduction (%) 21 Days After Application SETVI",30 to 44%
same,pest or weed control at 140 g/ha,"SETVI green foxtail (Setaria viridis), 140 g ai/ha, read-out: Visual Growth Reduction (%) 21 Days After Application SETVI",60 to 74%

# From patent US9149038B2, “4-amino-6-(heterocyclic)picolinates and 6-amino-2-(heterocyclic)pyrimidine-4-carboxylates and their use as herbicides” (Dow AgroSciences LLC, priority 2013, dated 2015)
